This note sets out measurements from US20240262795A1, “PYRAZINE COMPOUNDS AS INHIBITORS OF FLT3” (Biomea Fusion, Inc., priority 2021, published 2024).

The test system of test [1] is K-562. In words: Proliferation inhibition, CellTiter-Glo, K-562. The conditions noted are these: Homo sapiens, K562, 96 h; K-562 cells, IC50 (4 days), CellTiter-Glo; read-out: K-562 IC50. The class given is cell-based, human. An outline of the steps:
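About 10,000 cells per well in RPMI-1640 with 10% FBS. Compounds added 2 h after seeding at eight concentrations in duplicate (0.2% DMSO as 100% proliferation), then incubated ~96 h at 37° C, 5% CO2. ATP measured by CellTiter-Glo luminescence; IC50 from four-parameter logistic fit.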
For orientation: Cellular ATP, detected with luciferase, serves as a proxy for viable cell number.

Test [2] deals with T1, Ba/F3 cell lines stably expressing human FLT3-ITD-D835Y (Homo sapiens, UniProt P36888, D835Y, cells depend on it, form not given).
T1 construct: Ba/F3-FLT3-ITD-D835Y Relative IC50
T1 sequence (P36888 1-993 D835Y): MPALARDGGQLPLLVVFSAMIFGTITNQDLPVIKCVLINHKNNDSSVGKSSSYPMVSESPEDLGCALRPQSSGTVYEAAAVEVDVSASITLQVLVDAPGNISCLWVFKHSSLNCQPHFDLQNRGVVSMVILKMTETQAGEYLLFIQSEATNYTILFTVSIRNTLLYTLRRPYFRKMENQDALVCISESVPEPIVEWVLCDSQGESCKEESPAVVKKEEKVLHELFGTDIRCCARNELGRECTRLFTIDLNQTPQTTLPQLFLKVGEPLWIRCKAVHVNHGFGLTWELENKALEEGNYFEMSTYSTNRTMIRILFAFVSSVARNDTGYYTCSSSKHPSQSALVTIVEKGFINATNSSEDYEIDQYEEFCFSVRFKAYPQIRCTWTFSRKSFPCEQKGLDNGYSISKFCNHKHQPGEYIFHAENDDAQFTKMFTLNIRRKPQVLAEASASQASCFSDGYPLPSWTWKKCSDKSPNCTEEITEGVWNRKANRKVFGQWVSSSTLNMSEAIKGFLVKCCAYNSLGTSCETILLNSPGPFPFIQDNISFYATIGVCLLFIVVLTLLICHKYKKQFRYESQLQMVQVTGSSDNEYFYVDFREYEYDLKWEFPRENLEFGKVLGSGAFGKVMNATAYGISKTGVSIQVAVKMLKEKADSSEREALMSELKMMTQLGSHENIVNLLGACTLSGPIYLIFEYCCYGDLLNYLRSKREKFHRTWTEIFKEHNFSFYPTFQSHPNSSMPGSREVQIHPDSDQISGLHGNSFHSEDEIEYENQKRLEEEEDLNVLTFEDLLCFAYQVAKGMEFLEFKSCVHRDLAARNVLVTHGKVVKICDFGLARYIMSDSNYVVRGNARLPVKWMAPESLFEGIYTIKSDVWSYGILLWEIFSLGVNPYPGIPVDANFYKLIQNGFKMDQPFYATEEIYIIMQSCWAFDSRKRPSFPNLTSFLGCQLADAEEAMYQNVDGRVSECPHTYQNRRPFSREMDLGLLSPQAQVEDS
Put plainly: FLT3 mutant assay, cell viability, Ba/F3-FLT3-ITD-D835Y. The class given is cell-based, mouse. The conditions noted are these: IC50 (3 days), CellTiter-Glo; read-out: Ba/F3-FLT3-ITD-D835Y Relative IC50. On the procedure: Activity of compounds on FLT3 activating mutations were assessed using Ba/F3 cell lines (mouse pro-B cell line) stably expressing human FLT3-ITD, FLT3-ITD-D835Y or FLT3-ITD-F691L. […] The supernatant collected were concentrated with PEG8000 and used to infect Ba/F3 cells at 1-5 MOI in serum-free media with polybrene. Infected Ba/F3 cells were selected in presence of puromycin, and surviving cells verified by sequencing and/or protein detection assay. Constitutive expression of the activating kinase transforms the Ba/F3 cells into IL-3-independent growth allowing them to be cultured in the absence of IL-3. […] For use in compound testing, cells in exponential growth phase were harvested, counted, and resuspended at the required cell density. Cell viability assays were performed in 96-well assay plates and 90 μL of cell suspension seeded per well. Serial dilutions of the test compounds and assay controls and were freshly prepared for the assay. Nine-point 3× serial dilutions were prepared in 100% DMSO (400× stock) and subsequently diluted in cell culture media to obtain 10× stocks. Ten microliters of the 10× stock serial dilutions were added to the appropriate wells (triplicate wells per condition) in the assay plate. […] Assay plates were incubated for 3 days in at 37° C. in a humidified incubator with 5% CO2.
Inhibition rate (IR) of the tested compounds was determined by the following formula: IR (%)=(1−(RLU compound−RLU blank)/(RLU control−RLU blank))*100%. The inhibitions of different dose of compound were calculated in Excel file, and the dose responses were analysed using GraphPad Prism to evaluate related parameters, such as Bottom, Top and IC50. For the IC50 analysis by GraphPad Prism, the equation below was used to fit curve: Y=Bottom+(Top−Bottom)/(1+10^((LogIC50−X)*HillSlope))

As to `CCc1nc(C(N)=O)c(Nc2cccc(CCNC(=O)CN(C)C(=O)/C=C/CN(C)C)c2)nc1N(C)CC` [Compound 252, (E)-3-((3-(2-(2-(4-(dimethylamino)-N-methylbut-2-enamido)acetamido)ethyl)phenyl)amino)-6-ethyl-5-(ethyl (methyl)amino) pyrazine-2-carboxamide], the IC50 in test [1] is over 500 nM. Besides, the GI50 in test [2] was in the range of 1 to 10 nM.

Take `CCc1nc(C(N)=O)c(Nc2ccc(N3CCC(N4CCN(C)CC4)CC3)c(OC)c2)nc1NC1CCOCC1` [Gilteritinib, gilteritinib, reference compound]: in test [1], the IC50 lay in the range of 100 to 500 nM. Further, in test [2], the GI50 lay in the range of 10 to 100 nM.

For the compound `CCc1nc(C(N)=O)c(Nc2cccc([C@@H](C)CNC(=O)CN(C)C(=O)/C=C/CN3CCC3)c2)nc1N(C)CC` [Compound 518, (R,E)-3-((3-(1-(2-(4-(azetidin-1-yl)-N-methylbut-2-enamido)acetamido)propan-2-yl)phenyl)amino)-6-ethyl-5-(ethyl(methyl)amino)pyrazine-2-carboxamide], in test [1], the IC50 was over 500 nM. In addition, the GI50 in test [2] lay in the range of 10 to 100 nM.

On to `CCc1nc(C(N)=O)c(Nc2cccc(CCNC(=O)[C@H](C)N(C)C(=O)/C=C/CN(C)C)c2)nc1N(C)C(C)C` [Compound 204, (S,E)-3-((3-(2-(2-(4-(dimethylamino)-N-methylbut-2-enamido)propanamido)ethyl)phenyl)amino)-6-ethyl-5-(isopropyl(methyl)amino)pyrazine-2-carboxamide], for which the IC50 in test [1] was over 500 nM. In test [2], the GI50 lay within 1 to 10 nM.

For `Cc1nc(C(N)=O)c(Nc2cccc(CCNC(=O)[C@H](C)N(C)C(=O)/C=C/CN(C)C)c2)nc1N(C)C(C)C` [Compound 232, (S, E)-3-((3-(2-(2-(4-(dimethylamino)-N-methylbut-2-enamido)propanamido)ethyl)phenyl)amino)-5-(isopropyl (methyl)amino)-6-methylpyrazine-2-carboxamide], the IC50 in test [1] is over 500 nM. The GI50 in test [2] lay within 10 to 100 nM.

Consider `CCc1nc(C(N)=O)c(Nc2cccc(CCNC(=O)[C@H](C)N(C)C(=O)/C=C/CN(C)C)c2)nc1NC(C)C` [Compound 205, (S,E)-3-((3-(2-(2-(4-(dimethylamino)-N-methylbut-2-enamido)propanamido)ethyl)phenyl)amino)-6-ethyl-5-(isopropylamino)pyrazine-2-carboxamide], for which, in test [1], the half-inhibitory concentration (IC50) was over 500 nM. Also, the GI50 in test [2] was 1 to 10 nM.

In the case of `CCc1nc(C(N)=O)c(Nc2cccc([C@@H](C)CNC(=O)CN(C)C(=O)/C=C/CN3CCC3)c2)nc1C1CC1` [Compound 506, (R,E)-3-((3-(1-(2-(4-(azetidin-1-yl)-N-methylbut-2-enamido)acetamido)propan-2-yl)phenyl)amino)-5-cyclopropyl-6-ethylpyrazine-2-carboxamide], the IC50 in test [1] is over 500 nM. Also, in test [2], the GI50 was in the range of 10 to 100 nM.

With `CCc1nc(C(N)=O)c(Nc2cccc(CCNC(=O)CN(C)C(=O)/C=C/CN3CCC3)c2)nc1OC(C)C` [Compound 603, (E)-3-((3-(2-(2-(4-(azetidin-1-yl)-N-methylbut-2-enamido)acetamido)ethyl)phenyl)amino)-6-ethyl-5-isopropoxypyrazine-2-carboxamide], the IC50 in test [1] was over 500 nM. For the same compound, the GI50 in test [2] is 10 to 100 nM.

In the case of `CCCc1nc(Nc2cccc([C@@H](C)CNC(=O)CN(C)C(=O)/C=C/CN3CCC3)c2)c(C(N)=O)nc1CC` [Compound 507, (R,E)-3-((3-(1-(2-(4-(azetidin-1-yl)-N-methylbut-2-enamido)acetamido)propan-2-yl)phenyl)amino)-6-ethyl-5-propylpyrazine-2-carboxamide], the IC50 in test [1] was over 500 nM. In addition, in test [2], the GI50 is 10 to 100 nM.

`CCc1nc(Nc2cccc([C@@H](C)CNC(=O)CN(C)C(=O)/C=C/CN3CCC3)c2)c(C(N)=O)nc1CC` [Compound 508, (R, E)-3-((3-(1-(2-(4-(azetidin-1-yl)-N-methylbut-2-enamido)acetamido)propan-2-yl)phenyl)amino)-5,6-diethylpyrazine-2-carboxamide]: in test [1], the IC50 was over 500 nM. In addition, the GI50 in test [2] is 10 to 100 nM.

On to `CCc1nc(C(N)=O)c(Nc2ccnc(CCNC(=O)[C@H](C)N(C)C(=O)/C=C/CN(C)C)c2)nc1N(C)C(C)C` [Compound 605, (S, E)-3-((2-(2-(2-(4-(dimethylamino)-N-methylbut-2-enamido)propanamido)ethyl)pyridin-4-yl)amino)-6-ethyl-5-(isopropyl (methyl)amino) pyrazine-2-carboxamide], for which the IC50 in test [1] was over 500 nM. Also, in test [2], the GI50 was 10 to 100 nM.

With `CCc1nc(C(N)=O)c(Nc2cccc(CCNC(=O)[C@H](C)N(C)C(=O)/C=C/CNC)c2)nc1N(C)C(C)C` [Compound 307, (S,E)-6-ethyl-5-(isopropyl(methyl)amino)-3-((3-(2-(2-(N-methyl-4-(methylamino)but-2-enamido)propanamido)ethyl)phenyl)amino)pyrazine-2-carboxamide], the GI50 in test [2] lay in the range of 10 to 100 nM.

As to `CCc1nc(C(N)=O)c(Nc2cccc([C@@H](C)CNC(=O)CN(C)C(=O)/C=C/CN(C)C)c2)nc1C1CC1` [Compound 504, (R,E)-5-cyclopropyl-3-((3-(1-(2-(4-(dimethylamino)-N-methylbut-2-enamido)acetamido)propan-2-yl)phenyl)amino)-6-ethylpyrazine-2-carboxamide], the IC50 in test [1] was over 500 nM. In addition, the GI50 in test [2] was 10 to 100 nM.

Turning to `CCc1nc(C(N)=O)c(Nc2cccc(CCNC(=O)CN(C)C(=O)/C=C/CN3CCC3)c2)nc1N(C)CC` [Compound 516A, (E)-3-((3-(2-(2-(4-(azetidin-1-yl)-N-methylbut-2-enamido)acetamido)ethyl)phenyl)amino)-6-ethyl-5-(ethyl(methyl)amino) pyrazine-2-carboxamide], the IC50 in test [1] was over 500 nM. For the same compound, the GI50 in test [2] fell in the range of 10 to 100 nM.

In the case of `CCOc1nc(Nc2cccc(CCNC(=O)CN(C)C(=O)/C=C/CN3CCC3)c2)c(C(N)=O)nc1CC` [Compound 602, (E)-3-((3-(2-(2-(4-(azetidin-1-yl)-N-methylbut-2-enamido)acetamido)ethyl)phenyl)amino)-5-ethoxy-6-ethylpyrazine-2-carboxamide], the IC50 in test [1] is over 500 nM. The GI50 in test [2] lay within 10 to 100 nM.

As for `CCc1nc(C(N)=O)c(Nc2ccnc(CCNC(=O)[C@H](C)N(C)C(=O)/C=C/CN(C)C)c2)nc1C1CC1` [Compound 310, (S,E)-5-cyclopropyl-3-((2-(2-(2-(4-(dimethylamino)-N-methylbut-2-enamido)propanamido)ethyl)pyridin-4-yl)amino)-6-ethylpyrazine-2-carboxamide], in test [1], the IC50 is over 500 nM. Also, the GI50 in test [2] was 10 to 100 nM.

Regarding `CCc1nc(C(N)=O)c(Nc2cc(F)cc(CCNC(=O)CN(C)C(=O)/C=C/CN3CCC3)c2)nc1C1CC1` [Compound 516, (E)-3-((3-(2-(2-(4-(azetidin-1-yl)-N-methylbut-2-enamido)acetamido)ethyl)-5-fluorophenyl)amino)-5-cyclopropyl-6-ethylpyrazine-2-carboxamide], the IC50 in test [1] was over 500 nM. In addition, the GI50 in test [2] was 10 to 100 nM.

In general, IC50 refers to the concentration that gives 50% inhibition.
